According to patent publication US20120122908A1, “Novel C-4 Substituted Retinoids” (University of Maryland, priority 2000, published 2012):
Like-named read-outs stand apart in the source and are kept apart here.

What was measured:
CYP19 (aromatase) = biological target: T1, CYP19 (aromatase) (Homo sapiens, UniProt P11511); assay: Selectivity: effect on CYP19 (aromatase); assay type: biochemical; settings: concentration as high as 5 μM
T1 sequence (P11511 1-503): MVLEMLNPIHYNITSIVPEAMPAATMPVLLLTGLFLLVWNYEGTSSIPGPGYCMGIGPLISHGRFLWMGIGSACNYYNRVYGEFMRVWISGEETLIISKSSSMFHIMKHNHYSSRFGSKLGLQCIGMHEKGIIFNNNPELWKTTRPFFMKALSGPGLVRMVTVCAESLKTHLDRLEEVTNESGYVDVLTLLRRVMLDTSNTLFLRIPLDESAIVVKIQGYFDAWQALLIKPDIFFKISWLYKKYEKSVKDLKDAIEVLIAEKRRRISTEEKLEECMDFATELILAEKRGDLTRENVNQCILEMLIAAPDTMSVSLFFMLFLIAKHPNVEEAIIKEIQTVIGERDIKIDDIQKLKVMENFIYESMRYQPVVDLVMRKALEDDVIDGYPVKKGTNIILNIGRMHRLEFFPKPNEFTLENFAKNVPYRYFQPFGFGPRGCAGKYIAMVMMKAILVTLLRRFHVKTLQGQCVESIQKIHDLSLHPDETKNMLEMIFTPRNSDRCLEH
Method: The selectivity of the compounds of the present invention towards ATRA-4-hydroxylase was tested by measuring the effect on the key enzymes in the biosynthesis of estradiol and dehydroepiandrosterone, CYP19 (aromatase) and CYP17 (17-lyase), respectively.

RAR ? = biological target: T2, RAR ? (Homo sapiens, UniProt P10826); assay: Competitive [3H]ATRA binding to recombinant RAR (third subtype); settings: for binding to RAR (third subtype): concentrations up to 500 nM
T2 construct: Recombinant full-length RAR proteins were expressed as S-Tag fusion proteins in BL21 E. coli cells; S-Tag; made in house; host or cells: E. coli BL21
T2 sequence (P10826 1-455): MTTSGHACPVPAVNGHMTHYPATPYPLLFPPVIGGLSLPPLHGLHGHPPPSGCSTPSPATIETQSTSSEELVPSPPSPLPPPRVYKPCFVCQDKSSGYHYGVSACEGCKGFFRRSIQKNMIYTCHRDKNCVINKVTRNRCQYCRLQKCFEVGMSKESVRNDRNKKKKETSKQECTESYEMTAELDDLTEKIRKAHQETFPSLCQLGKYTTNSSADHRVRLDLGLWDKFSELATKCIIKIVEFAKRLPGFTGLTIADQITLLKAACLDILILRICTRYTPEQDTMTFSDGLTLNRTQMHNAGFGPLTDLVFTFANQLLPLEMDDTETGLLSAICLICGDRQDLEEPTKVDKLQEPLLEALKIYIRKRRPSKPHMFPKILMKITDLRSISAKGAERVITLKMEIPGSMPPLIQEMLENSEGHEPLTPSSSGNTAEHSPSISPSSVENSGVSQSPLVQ
Source text: Because the novel compounds are retinoid-related analogs, they bind to the retinoid receptors in vivo and thus have increased therapeutic potentials. Similar to ATRA, these novel compounds act as a ligand for the retinoic acid receptors (RARs, α, β, and γ) but not the retinoid X receptors (RXRs, α, β, and γ). […] (Nervi C, Grippo J F, Sherman M I, George M D, Jetten A M, Identification and characterization of nuclear retinoic acid-binding activity inhuman myeloblastic leukemia HL-60 cells, Proc Natl Acad Sci USA 86: 5854-5858, 1989) The dissociation constants for the inhibitors is determined by the well described charcoal absorption method (Yang N, Schule R, Mangelsdorf D J, Evans R M, Characterization of DNA binding and retinoic acid binding properties of retinoic acid receptor, Proc Natl Acad Sci USA 88: 3559-3663, 1991). Briefly, serial dilutions of the novel compounds (10^−11 to 10^−5 M) in dimethyl sulfoxide, 100 μL each is used. 12 mg of crude cytosolic extracts is prepared from pET15b (Novagen, Madison, Wis.)/hRAR-α, -β, and -γ prepared protein is used for each data point. All reactions are conducted in binding buffer (60 mM Na imidazole, 500 mM NaCl, 20 mM Tris, pH 7.9) for 14-16 hours at 4° C. in a final volume of 1 mL. Unbound [^3H]ATRA is removed by addition of 0.5 mL of equivalent-sized dextran-treated charcoal (final concentration 3% [wt/vol]) for 15 minutes at 4° C. […]
Since the RAMBAs are retinoic acid analogs, it is possible that some of the compounds may bind to retinoid receptors and function as either transcriptional agonists/antagonists or may display anti AP-1 activity (Chambon P, A decade of molecular biology of retinoic acid, FASEB J 10: 5899-5904, 19962. The ability of three RAMBAs, VN/14-1, VN/50A-1 and VN/66-1 to bind to the individual RAR receptors was thus evaluated in vitro. Recombinant full-length RAR proteins were expressed as S-Tag fusion proteins in BL21 E. coli cells used for competitive binding assays. Each competition-binding assay contained 1 nM [^3H] […]

[1] = Pharmacokinetic studies in mice (plasma levels by HPLC); assay type: in vivo
Method: FIG. 18: Plasma Levels in Balb/c Mice Following Dose of 10 mg/kg body weight Given s/c.
Pharmacokinetic studies of VN/65-4 and VN/66-1 were measured in mice and were compared to VN/14-1 and VN/50A-1. Mice were dosed s.c. at 10 mg/kg using a vehicle, 45% β-cyclodextrin in water, and plasma levels were measured by HPLC. […] The results are summarized in Table 3 below and the profiles in FIG. 18.

[2] = mice, 10 mg/kg s.c., average of two animals

Cmax ([1]; Balb/c, mouse, plasma, sc, mice, 10 mg/kg s.c., average of two animals, read-out: Cmax) [ng/mL] | SMILES | inhibition of CYP19 (aromatase) (CYP19 (aromatase)) | binding to RAR (third subtype) (RAR ?) | time to complete elimination from plasma ([1]; after administration to mice, FIG. 18) [h] | IC50 (RAR ?; 1 nM [3H]ATRA, competitor 1 nM to 500 nM) [nM] | AUC [1, 2] [μ/ml min] | Cmax [1, 2] [ng/mL] | Tmax [1, 2] [min] | t1/2 [1, 2] [min]
 | CC(C=CC1=C(C)C(n2ccnc2)CCC1(C)C)=CC=CC(C)=CC(=O)n1ccnc1 (stereo not drawn) [VN/50A-1] | barely inhibited | did not bind | ≤ 3 |  |  |  |  | 
 | CC1=C(/C=C/C(C)=C/C=C/C(C)=C/C(=O)O)C(C)(C)CCC1n1ccnc1 (racemic) [VN/14-1, (±)-4-(1H-imidazole-1-yl)retinoic acid] | barely inhibited |  |  | ~200 | 567.80 | 5020 | 30 | 68.4
16000 | CC(C=CC1=C(C)C(n2ccnc2)CCC1(C)C)=CC=CC(C)=CC(=O)Nc1ccc(O)cc1 (racemic) [VN/66-1, (±)-4-(1H-imidazol-1-yl), N-(4′-hydroxyphenyl)retinamide] | barely inhibited | did not bind |  |  |  |  |  | 
